From patent US20040005294A1, “IGFBP-3 in the diagnosis and treatment of cancer” (priority 2002, published 2004) come the findings set out here.

Format in all cases: cell-based, human
The test system of one assay is 1799 cells. Nature of the assay: Immunoblot of apoptosis-related enzymes and Bcl family members. The conditions noted are these: 3 days. The procedure:
(§1) Whole cell lysates from 1×10^6 cells were prepared in lysis buffer as described (Lonardo et al., 2002). Equivalent amounts of protein were resolved by sodium dodecyl sulfate (SDS)-polyacrylamide gels (7.5%-12%) and transferred to a nitrocellulose membrane. After the membrane was blocked in Tris-buffered saline (TBS) containing 0.05% Tween 20 (TBST) and 5% (w/v) nonfat powdered milk, the membrane was incubated with primary antibody at the appropriate dilution in TBS-5% nonfat milk at 4° C. for 16 h. The membrane was then washed multiple times with TBST and incubated with the appropriate horseradish peroxidaseconjugated secondary antibody for 1 h at room temperature. The protein-antibody complexes were detected by enhanced chemilurminescence (ECL kit; Amersham, Arlington Heights, Ill.), according to the manufacturer's recommended protocol.
The following antibodies and working dilutions were used for the Western blots: rabbit polyclonal antibodies against human phosphorylated Akt (pAkt) (Ser473) (1:1000), Akt (1:1000), phosphorylated glycogen synthase kinase 3β (pGSK-3β) (Ser9) (1:1000), and mouse monoclonal antibody against human antiphosphorylated MAPK (anti-pMAPK) (Thr202/Tyr204) (1:500) (Cell Signaling Technology, Beverly, Mass.); rabbit polyclonal anti-GSK-3α/β (1:1000) (BD Transduction Laboratories, Lexington, Ky.); rabbit polyclonal anti-Bax and anti-caspase-3 antibodies (1:2000) (Pharmingen, San Diego, Calif.); rabbit polyclonal anti-Bcl-2 (1:1000) and rabbit polyclonal antipoly(ADP-ribose) polymerase (PARP) antibody (1:1000) (VIC5; Roche Molecular Biochemicals, Indianapolis, Ind.); rabbit polyclonal anti-hemagglutinin (HA) antibody (1:1000), goat polyclonal antibodies against extracellular related kinase 1(Erk-1; 1:1000), Erk-2 (1:1000), and β-actin (1:4000) (Santa Cruz Biotechnology, Inc., Santa Cruz, Calif.); rabbit anti-mouse immunoglobulin G (IgG)-horseradish peroxidase conjugate (1:2000) (DAKO, Carpinteria, Calif.); and donkey anti-rabbit IgG-horseradish peroxidase conjugate (1:2000) and rabbit anti-goat IgG-horseradish peroxidase conjugate (1:2000) (Amersham Pharmacia Biotech, Arlington Heights, Ill.).
On the technique in general: Immunoblotting shows a protein as a band on a membrane.

Assay [1] has as its system PI3K/Akt pathway in 1799 cells. Nature of the assay: Immunoblot of pAkt and pGSK-3β, 1799 cells. The conditions noted are these: 10^−7 M. The procedure: as §1, with “protocol. […]” for “protocol.”
A further assay has as its system HB56B cells. The experiment in a line: MTT proliferation assay, HB56B cells. The conditions noted are these: 10^−9 M to 10^−7 M, 1-3 days. The method, then:
To measure the effects of deguelin on cell proliferation, NHBE, 1799, 1198, 1170-1, and HB56B cells were plated at concentrations of 2×10^3 to 4×10^3 cells/well in 96-well plates. The next day, cells were treated with either 0.1% DMSO as a diluent control or various concentrations of deguelin (final DMSO concentration=0.1%). At the end of the assay time period, cell proliferation was measured by the 3-(4,5-dimethylthiazol-2-yl)-2,5-diphenyltetrazolium bromide (MTT) assay as described (Lee et al., 2002). Six replicate wells were used for each analysis, and data from replicate wells are presented as means with 95% confidence intervals (CIs). For some experiments, the drug concentration required to inhibit cell growth by 50% (IC50) was determined by interpolation from dose-response curves. At least three independent experiments were performed.

Another assay deals with PI3K in 1799 cells. Nature of the assay: PI3K assay of immunoprecipitates. The conditions noted are these: 10^−7 M, IGF-I activated. The method, then: Approximately 5×10^6 1799 cells were treated with 10^−7 M deguelin or 0.1% DMSO for different time periods (0-24 h) in the absence of any additional stimulatory growth factors. PI3K in these cells was then activated by treatment with 50 ng/mL IGF-I for 15 min. Cells were lylsed, and PI3K was immunoprecipitated from 500 μg of total cell extracts with 5 μL of rabbit antibody against full-length rat p85 PI3K (Upstate Biotechnology, Inc.), which coprecipitates the p110 catalytic subunit of PI3K, and 20 μL of protein A-sepharose beads (Amersham Pharmacia Biotech). PI3K activity in the immunoprecipitates was analyzed using bovine brain extract (Type I; Sigma-Aldrich), which contains a mixture of phosphatidylinositol, phosphatidylinositol 4-phosphate, and phosphatidylinositol 4,5-bisphosphate as a substrate, as described (Hsu et al., 2000). Jurkat cell lysates (Upstate Biotechnology, Inc.) and IGF-I-activated […] NSCLC cell lysates were used as positive controls.

The subject of a further assay is 1198 and 1170-1 cells. Nature of the assay: Apoptosis by TUNEL and DNA fragmentation, 1198 and 1170-1 cells. The conditions noted are these: treatment for 1 day. The procedure: […] Apoptosis was assessed by morphology, by a flow cytometry-based, modified terminal deoxynucleotidyl transferase dUTP nick end labeling (TUNEL) assay, and by the detection of fragmented DNA. For morphology, live cells were observed by light microscopy using a ×100 objective. For TUNEL analysis, both adherent and nonadherent cells were harvested and pooled, fixed with 1% paraformaldehyde and 70% ethanol, and processed using the APO-BrdU staining kit (Phoenix Flow Systems, San Diego, Calif.), a modified TUNEL assay, as described (Lee et al., 2002). Cells treated with DMSO were used to gate the control nonapoptotic populations and as a reference for cells treated with deguelin. An internal control (HL-60 cells treated with camptothecin to induce apoptosis) provided in the apoptosis detection kit was also used to ensure that the TUNEL reaction was occurring during the staining procedure. For the detection of fragmented nucleosomal DNA, cells were processed using the TACS apoptotic DNA laddering kit (Trevigen Inc., Gaithersburg, Md.), according to the manufacturer's recommended protocol.

The next assay relates to squamous HBE cells. The experiment in a line: Immunoblot of pAkt, pGSK-3β, caspase-3 and PARP, squamous HBE cells. The method, then:
as §1
To determine whether deguelin-induced antiproliferative effects on premalignant HBE cells were mediated through the inhibition of the PI3K/Akt pathway, 2×10^5 1799 cells/well or 1×10 ^6 squamous HBE cells/well in six-well plates were infected with 5×10 ^3 particles/cell of a control virus (Ad5CMV) or with 1×10^3 or 5×10^3 particles/cell of Ad5CMV-MyrAkt-HA, an adenoviral vector that expresses a constitutively active Akt. […] Apoptosis was analyzed using the APO-BrdU staining kit for TUNEL, Western blot analyses for caspase-3, and the cleavage of PARP.

Turning to `COc1cc2c(cc1OC)[C@@H]1C(=O)c3ccc4c(c3O[C@@H]1CO2)C=CC(C)(C)O4` [deguelin, Deguelin], in the assay with 1799 cells (10^−8 M or 10^−7 M), the caspase-3 activation entry is reported as “activated caspase-3”. For the same compound, in the assay on 1799 cells, the Bax level result is “dose dependent increase in the level of Bax”, the Bcl-2 expression entry was “slight decrease in Bcl-2 expression” and the Bcl-xL level entry was “did not affect the level of Bcl-xL”. The “levels of pAkt and pGSK-3β” value in assay [1] (0-24 h) is “time-dependent decrease in the levels of pAkt and pGSK-3β”. For the same compound, in assay [1] (by 14 h), the pAkt level entry is recorded as “virtually undetectable”. Also, the “effect on growth of HB56B cells” value with HB56B cells was “Dose- and time-dependent growth-inhibitory effects”. Moreover, the “decrease in PI3K activity compared with untreated cells” value in the assay with PI3K in 1799 cells is “approximately 55%”. In addition, the apoptotic events entry with 1198 and 1170-1 cells is “did not induce detectable apoptotic events”. For the same compound, the “levels of pAkt and pGSK-3β” value in the assay on squamous HBE cells is “decreased the levels of pAkt and pGSK-3β in a time-dependent manner”. For the same compound, the PARP cleavage result in the assay on squamous HBE cells (10^−9 M to 10^−7 M, 1 day) is listed as “increased PARP cleavage”.
